Measured values reported in article doi:10.1101/2025.04.25.650653, “Hierarchical small molecule inhibition of MYST acetyltransferases” (bioRxiv, 2025).

Columns and labels:
[1] = test system: proteins captured by H3K14-CoA resin from HeLa nuclear extracts; test: Proteome-wide competitive chemoproteomic profiling (H3K14-CoA beads, TMT LC-MS/MS); format: binding; details: for Log2FC PF9363-100nM / PF9363-0nM / Log2FC PF9363-1000nM / PF9363-0nM / Log2FC PF9363-10000nM / PF9363-0nM: H3K14-CoA beads, TMT
BT-549 cells = test: NCI-60 cell line screen, sulforhodamine B growth inhibition; format: cell-based, human; details: BT-549, 10 and 100 μM, 48 h
Source text: As a comparator we used growth inhibition caused by treatment of cells with CPI-1612,[45], [46] a potent inhibitor of the EP300/CREBBP (KAT3A/B), widely regarded as the master regulator of protein acetylation.
Figure 6. […] (C) Dependence of breast cancer cell lines on non-MYST KATs (EP300, CREBBP), MYST KATs (KAT6A, KAT6B, KAT7, KAT8, KAT5), and a MYST KAT complex member (BRPF1) derived from on DepMap CRISPR screening data. BT-549 is highlighted in orange. Lower CERES score indicates a greater dependence of the cell line on the specified gene. […] Data is representiative of n=2 biological replicates.
(0.01, 0.1, 1, 10, 100 μM) for 48 hours and analyzed by sulforhodamine B assay for growth inhibition as previously described.12-14 o validate the NCI-60 relative activity trends using an orthogonal method, we […]
0.94, 0.47, 0.23, 0 μM) for 96 hours. Experiments were performed in quadruplicate, and cell viability was measured using CellTiter-Glo® Luminescent Cell Viability Assay (Promega, G7572) according to the manufacturer's instructions. Luminescence signals were recorded on a BioTek Synergy 2 plate reader, and results were normalized to vehicle-treated controls (set to 100%). Half-maximal inhibition values (IC₅₀) were determined from nonlinear regression analysis of dose-response curves using GraphPad Prism 9. […]

KAT7 = KAT7 (Homo sapiens, UniProt O95251); test: Competitive chemoproteomic profiling (H3K14-CoA affinity capture, western blot and LC-MS/MS); details: 0.1 μM, HeLa nuclear extracts
Chain of KAT7 (O95251 whole entry): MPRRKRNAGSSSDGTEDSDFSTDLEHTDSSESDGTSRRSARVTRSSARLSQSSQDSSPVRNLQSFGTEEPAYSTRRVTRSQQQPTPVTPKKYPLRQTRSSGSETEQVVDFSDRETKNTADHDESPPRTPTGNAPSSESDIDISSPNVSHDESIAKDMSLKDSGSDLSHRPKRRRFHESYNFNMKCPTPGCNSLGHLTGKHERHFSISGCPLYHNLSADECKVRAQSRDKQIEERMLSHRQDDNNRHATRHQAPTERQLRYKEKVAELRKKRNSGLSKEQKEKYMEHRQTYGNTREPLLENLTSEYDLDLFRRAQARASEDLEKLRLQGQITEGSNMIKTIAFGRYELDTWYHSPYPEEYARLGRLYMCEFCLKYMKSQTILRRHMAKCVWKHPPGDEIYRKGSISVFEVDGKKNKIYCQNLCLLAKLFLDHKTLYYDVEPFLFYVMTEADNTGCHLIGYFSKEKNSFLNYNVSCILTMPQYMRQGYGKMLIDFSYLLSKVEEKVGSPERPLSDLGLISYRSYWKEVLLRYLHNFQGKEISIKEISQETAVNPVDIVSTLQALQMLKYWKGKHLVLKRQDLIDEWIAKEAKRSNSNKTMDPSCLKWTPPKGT

SMILES: COc1cccc(OC)c1S(=O)(=O)Nc1noc2cc(Cn3cccn3)cc(OC)c12 [PF-9363]
- competition of capture of NAT10, ESCO1, KAT2B (other clusters) ([1]; 0, 0.1, 1, 10 μM): relatively insensitive
- Log2FC PF9363-100nM / PF9363-0nM ([1]; protein BLM (P54132)): 0.02
- Log2FC PF9363-1000nM / PF9363-0nM ([1]; protein BLM (P54132)): 0.03
- Log2FC PF9363-10000nM / PF9363-0nM ([1]; protein BLM (P54132)): 0.05
- concentration at which BRPF3 capture is competed ([1]; protein BRPF3): 10 µM
- Log2FC PF9363-100nM / PF9363-0nM ([1]; protein MKI67 (P46013)): -0.01
- Log2FC PF9363-1000nM / PF9363-0nM ([1]; protein MKI67 (P46013)): -0.01
- Log2FC PF9363-10000nM / PF9363-0nM ([1]; protein MKI67 (P46013)): 0.02
- Log2FC PF9363-100nM / PF9363-0nM ([1]; protein NUMA1 (Q14980)): 0.02
- Log2FC PF9363-1000nM / PF9363-0nM ([1]; protein NUMA1 (Q14980)): 0.05
- Log2FC PF9363-10000nM / PF9363-0nM ([1]; protein NUMA1 (Q14980)): 0.06
- Log2FC PF9363-100nM / PF9363-0nM ([1]; protein TRRAP (Q9Y4A5)): -0.05
- Log2FC PF9363-1000nM / PF9363-0nM ([1]; protein TRRAP (Q9Y4A5)): -0.12
- Log2FC PF9363-10000nM / PF9363-0nM ([1]; protein TRRAP (Q9Y4A5)): -0.22
- growth inhibition compared with CPI-1612 (BT-549 cells): greater growth inhibition
- co-competition of KAT7 JADE complex members (KAT7): caused co-competition of JADE2, MEAF6, and ING4/5
